The target of data set [1] is T1, PSMA (Homo sapiens, UniProt Q04609).
T1 construct: host or cells: LNCaP
The data set can be described thus: Competitive cell binding assay (binding affinity). Conditions: LNCaP cells, competition against 68Ga-labeled [Glu-urea-lys(Ahx)]2-HBED-CC radioligand, 0-5000 nM analyte. As to the method:
(§1) For binding studies and in vivo experiments LNCaP cells (metastatic lesion of human prostatic adenocarcinoma, ATCC CRL-1740) were cultured in RPMI medium supplemented with 10% fetal calf serum and Glutamax (PAA, Austria). During cell culture, cells were grown at 37° C. in an incubator with humidified air, equilibrated with 5% CO2. The cells were harvested using trypsin-ethylenediaminetetraacetic acid (trypsin-EDTA; 0.25% trypsin, 0.02% EDTA, all from PAA, Austria) and washed with PBS.
The competitive cell binding assay and internalization experiments were performed as described previously (Eder, M. et al., Bioconj. Chem 2012, 23, 688-697) Briefly, the respective cells (10^5 per well) were incubated with the radioligand (^68Ga-labeled [Glu-urea-lys(Ahx)]2-HBED-CC (Schafer, M. et al., EJNMMI Res. 2012; 2, 23) in the presence of 12 different concentrations of analyte (0-5000 nM, 100 μL/well). After incubation, washing was carried out using a multiscreen vacuum manifold (Millipore, Billerica, Mass.). Cell-bound radioactivity was measured using a gamma counter (Packard Cobra II, GMI, Minnesota, USA). The 50% inhibitory concentration (IC^50) was calculated by fitting the data using a nonlinear regression algorithm (GraphPad Software).
Experiments were performed three times. Reference is made to Table A below.

Data set [2] deals with LNCaP cells. In words: Specific cell uptake and internalization. The data set is classed as cell-based, human. The conditions noted are these: for Internalized fraction: (Internalized activity/total activity)*100, LNCaP cells; for Cell surface / Internalised: LNCaP cells, 30 nM 18F-labeled compound, 45 min, 37° C., specific (blocking with 500 μM PMPA), mean±SD n=3. Here is the method: FIG. 8: Internalization of compounds PSMA1001/1002/1003. All compounds were labeled with ^18F, and their specific cell surface binding and internalization properties on LNCaP cells were investigated. Specific cell uptake was determined by blocking with 500 μM-PMPA. Values are expressed as % of applied radioactivity bound to 10^5 cells. Data are expressed as mean±SD (n=3).
as §1
To determine the specific cell uptake and internalization, 10^5 cells were seeded in poly-L-lysine coated 24-well cell culture plates 24 h before incubation. After washing, the cells were incubated with 30 nM of the radiolabeled compounds for 45 min at 37° C. Specific cellular uptake was determined by competitive blocking with 2-(phosphonomethyl)pentanedioic acid (500 μM final concentration, PMPA, Axxora, Loerrach, Germany). Cellular uptake was terminated by washing 3 times with 1 mL of ice-cold PBS. Cells were subsequently incubated twice with 0.5 mL glycine-HCl in PBS (50 mM, pH=2.8) for 5 min to remove the surface-bound fraction. The cells were washed with 1 mL of ice-cold PBS and lysed using 0.3 N NaOH (0.5 mL). The surface-bound and the internalized fractions were measured in a gamma counter. The cell uptake was calculated as percent of the initially added radioactivity bound to 10^5 cells [% ID/10^5 cells].

Data set [3] deals with mice bearing LNCaP tumor xenografts. In words: Dynamic microPET imaging. The data set is classed as in vivo. As to the method:
FIG. 9: PET imaging of PSMA-1001. Whole-body coronal microPET images of an athymic male nude mice bearing LNCaP tumor xenografts. The tumor-targeting efficacy and pharmacokinetic properties of ^18F-PSMA-1001 were evaluated by dynamic microPET scans. Approximately 15 MBq/mouse were injected. […] The values are expressed as mean SUV (standardized uptake values).
Whole-body coronal microPET images of an athymic male nude mice bearing LNCaP tumor xenografts. […] Approximately 15 MBq/mouse were injected. […] The values are expressed as mean SUV (standardized uptake values).
(§2) For in vivo experiments, 8 week old BALB/c nu/nu mice were subcutaneously inoculated into the right trunk with 5×10^6 LNCaP- or PC3-cells in 50% Matrigel. When the size of tumor was approximately 1 cm^3, the radiolabeled compound was injected via the tail vein (ca. 30 MBq, 60 pmol for μPET imaging; ca. 1 MBq, 60 pmol for organ distribution).
For the microPET studies, 10-25 MBq of the radiolabeled compounds in a volume of 0.15 mL (˜60 pmol) were injected via a lateral tail vein into mice bearing LNCaP tumor xenografts. The anesthetized animals (2% sevoflurane, Abbott, Wiesbaden, Germany) were placed in prone position into the Inveon small animal PET scanner (Siemens, Knoxville, Tenn., USA) to perform dynamic microPET scans and 20 min-static scans.

The subject of data set [4] is BALB/c nu/nu mice bearing LNCaP tumor. In words: Organ distribution. It counts as in vivo. Conditions: 1 h after injection, tail vein, 60 pmol, n=3. Here is the method: as §2
The F-18 labeled compounds were injected via tail vein (1-2 MBq per mouse; 60 pmol). At 1 h after injection, the animals were sacrificed. Organs of interest were dissected, blotted dry, and weighed. The radioactivity was measured with a gamma counter (Packard Cobra II, GMI, Minnesota, USA) and calculated as % ID/g.

One may read the IC50 as the point on the concentration scale where inhibition reaches its midpoint. The low end stands for greater potency, the high end for weaker potency.

T1 sequence (Q04609 whole entry): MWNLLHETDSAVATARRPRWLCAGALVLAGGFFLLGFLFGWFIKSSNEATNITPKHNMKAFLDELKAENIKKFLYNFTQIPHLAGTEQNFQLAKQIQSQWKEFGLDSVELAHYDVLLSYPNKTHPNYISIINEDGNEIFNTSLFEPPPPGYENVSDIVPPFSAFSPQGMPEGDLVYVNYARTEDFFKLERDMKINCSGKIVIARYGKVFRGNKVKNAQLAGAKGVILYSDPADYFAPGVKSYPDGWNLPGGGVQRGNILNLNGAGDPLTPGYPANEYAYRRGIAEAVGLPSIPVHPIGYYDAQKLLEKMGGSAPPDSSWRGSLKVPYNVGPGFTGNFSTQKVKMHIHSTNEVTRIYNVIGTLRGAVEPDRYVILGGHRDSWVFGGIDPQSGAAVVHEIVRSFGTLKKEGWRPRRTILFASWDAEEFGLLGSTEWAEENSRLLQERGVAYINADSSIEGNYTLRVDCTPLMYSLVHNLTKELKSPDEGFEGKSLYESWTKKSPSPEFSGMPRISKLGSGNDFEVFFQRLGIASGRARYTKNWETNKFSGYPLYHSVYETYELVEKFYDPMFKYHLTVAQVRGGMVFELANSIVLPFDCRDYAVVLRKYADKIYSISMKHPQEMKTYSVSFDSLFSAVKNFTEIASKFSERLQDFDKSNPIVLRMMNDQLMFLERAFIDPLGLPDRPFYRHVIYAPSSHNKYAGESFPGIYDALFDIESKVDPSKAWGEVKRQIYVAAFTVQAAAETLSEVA

`O=C(O)CC[C@H](NC(=O)N[C@@H](CCCCNC(=O)[C@H](Cc1ccc2ccccc2c1)NC(=O)[C@H]1CC[C@H](CNC(=O)c2ccc([18F])nc2)CC1)C(=O)O)C(=O)O` [PSMA-1001, (Glu)-(Urea)-((D)-Lys)-(2-Naphthylalanine)-(4-(Aminomethyl)cyclohexanecarboxylic acid)-FN]: the IC50 in data set [1] was determined as 3 nM. In data set [2], this compound yielded an Internalized fraction of 26%, a Cell surface of 8.4 ± 1.9 % ID/10^5 cells and an Internalised of 2.9 ± 0.3 % ID/10^5 cells. Besides, the “Tumor standardized uptake value (SUVmean,BW)” value in data set [3] (LNCaP tumor xenograft, time not stated) is given as 0.5. In data set [3] (LNCaP xenograft mice), the “Uptake in the kidneys (microPET)” value is listed as “increasing uptake in the kidneys” and the “Uptake in the liver (microPET)” value was “high uptake in the liver”.
Consider `O=C(O)CC[C@H](NC(=O)N[C@@H](CCCCNC(=O)[C@H](Cc1ccc2ccccc2c1)NC(=O)c1ccc(CNC(=O)c2ccc([18F])nc2)cc1)C(=O)O)C(=O)O` [PSMA-1003, (Glu)-(Urea)-((D)-Lys)-(2-Naphthylalanine)-(4-(Aminomethyl)benzoic acid)-FN], for which, in data set [4], the “Organ distribution, Blood, Mean” value was 2.02 % ID/g; the “Organ distribution, Brain, Mean” value was 0.07 % ID/g; the “Organ distribution, Heart, Mean” value is listed as 0.25 % ID/g; the “Organ distribution, Kidney, Mean” value came to 32.37 % ID/g. In data set [4], the “Organ distribution, LNCaP Tumor, Mean” value turned out to be 3.4 % ID/g; the “Organ distribution, Liver, Mean” value came to 3.02 % ID/g; the “Organ distribution, Lung, Mean” value amounted to 0.65 % ID/g; the “Organ distribution, Muscle, Mean” value was 0.25 % ID/g. In addition, in data set [4], the “Organ distribution, Small intestine, Mean” value worked out at 8.49 % ID/g and the “Organ distribution, Spleen, Mean” value worked out at 1.96 % ID/g.
The compound `O=C(O)CCC(NC(=O)NC(CCCCNC(=O)C(Cc1ccc2ccccc2c1)NC(=O)c1ccc(CNC(=O)CO/N=C\C([18F])C(O)C(O)C(O)CO)cc1)C(=O)O)C(=O)O` (stereo not shown) [PSMA-1005, (Glu)-(Urea)-(Lys)-(2Nal)-(Bn)-(Acetyl-FDG-Oxim)] gave an IC50 in data set [1] of 7 nM. In data set [2], this compound had an Internalized fraction of 63%, a Cell surface of 1.1 ± 0.5 % ID/10^5 cells and an Internalised of 0.7 ± 0.4 % ID/10^5 cells.
In data set [1], “(Glu)-(Urea)-((D)-Lys)-(2-Naphthylalanine)-(4-(Aminomethyl)benzoic acid)-FN [PSMA-1003]” returned a half-inhibitory concentration (IC50) of 3 nM. In data set [2], this compound registered an Internalized fraction of 38%, a Cell surface of 11.7 ± 1.2 % ID/10^5 cells and an Internalised of 7.1 ± 0.8 % ID/10^5 cells.
